Measured values: patent US20240352010A1, “SUBSTITUTED 1,2,4-THIADIAZOLYL NICOTINAMIDES, SALTS OR N-OXIDES THEREOF AND THEIR USE AS HERBICIDALLY ACTIVE SUBSTANCES” (BayerAktiengesellschaft, priority 2021, published 2024)

Tested on: Setaria viridis (SETVI)
Assay: Herbicidal post-emergence action, SETVI
Format: in vivo
From the text: Seeds of mono- and dicotyledonous weed plants were sown in plastic pots (double sowings with one species of mono- and one species of dicotyledonous weed plants per pot), in sandy loam, covered with soil and grown under controlled growth conditions. 2 to 3 weeks after sowing, the test plants were sprayed in the single-leaf stage. The compounds according to the invention, formulated in the form of wettable powders (WP) or as emulsifiable concentrates (EC), were sprayed onto the green plant parts as an aqueous suspension or as an emulsion, with the addition of 0.5% of an additive, at an application rate of 600 litres of water per hectare (converted). The test plants were placed in the greenhouse for ca. 3 weeks under optimum growth conditions, and then the effect of the preparations is assessed visually in comparison with untreated controls (herbicidal effect in percent (%): 100% effect=plants have died, 0% effect=as control plants). […]

Which results are given for `O=C(Nc1ncns1)c1c(C2CC2)ccnc1F` [Example I-005]?
herbicidal effect in percent, SETVI (320 g/ha, assessed visually after ca. 3 weeks vs untreated controls (Table D8)): 90%; herbicidal effect in percent, SETVI (1280 g/ha, assessed visually after ca. 3 weeks vs untreated controls (Table B7)): 100%
